Where two headings read alike, the source gives them in different places.
Assays:
E. coli = assay: Broth microdilution MIC of lecithin/chitosan particle compositions; assay type: cell-based; conditions: maximum concentration tested 10 mg/ml; for MIC: Escherichia coli
Description: (§1) Initially, to determine basic characteristics, each active component was separately mixed, generally under agitated conditions, with water, and each was miscible with water. Each, after being mixed with water, was tested in a broth microdilution assay, against a variety of bacteria using amounts of the each of the lauric acid derivatives, ranging from about 0.0009 wt. % to about 8 wt. %. The bacteria included Escherichia coli, and Staphylococcus aureus (including MRSA strains). The minimum inhibitory concentration (MIC) needed to prevent growth of the target bacteria was evaluated based on a method published by Clinical Laboratory Standards Institute (CLSI), broth microdilution method M-07 (M07). […] Each of the samples containing one of the lauric acid derivatives was compared with a positive control, decanoic acid.
(§2) For TABLES 1 to 3, compositions were generally prepared as described above, and as further outlined in this paragraph. For these examples, the active component, as a lauric acid derivative or lauric acid, was suspended in an organic solvent, chloroform, and then mixed with water, under robust agitation. The amount of water to the amount of chloroform was at least about 2:1, and could be as high as 10:1. Chloroform was then evaporated (e.g., under vacuum using a freeze dryer). After removal of the chloroform, a 2.2% lecithin solution in an acetate buffer (e.g., 98 mM acetic acid and 2 mM sodium acetate) was prepared and added, so the final amount of the active component was about 1 part active component mixture and about 9 parts of the 2.2% lecithin solution. Of course, it is noted that other ranges to achieve final amount of the active component as described above (e.g., active component mixture and lecithin solution) may also be utilized. Cholesterol could also be optionally added. The mixture of lecithin and the active component was mixed and sonicated, and then a solution of about 1.5% chitosan was added. Thereafter, the entirety of the mixture containing the lecithin and the active component was further blended, in which a final ratio was about 1 part active component to about 9 parts of the 2.2% lecithin solution to about 10 parts of the 1.5% chitosan solution. The pH was then varied, to a pH of 5, or a pH of 7, or a pH of 9. In some mixtures having a pH of 7, a chemical agent imparting a positive charge to the chitosan was included in a form of glycol chitosan. In these tests, the chemical agent used was glycol. In these examples, the amount of chemical agent, glycol was about one molecule glycol moiety to one molecule chitosan sacharide unit; higher amounts of glycol moieties are also acceptable, while lower amounts of glycol moieties were often found to decrease overall inhibitory activity associated with a composition when formed and tested in vitro. It is noted that negatively charged chitosan containing particles were prepared. […] After mixing, the mixtures could each be filtered through a […] filter. In some tests, the mixtures were sonicated before filtering. Sonication produced small particles. In some studies, particles were freeze dried as a powder (generally, after mixing, sonicating and filtering).
(§3) The positive controls were prepared and evaluated in a similar manner. All prepared samples were tested using a broth microdilution test.

S. epidermidis = assay: as above; assay type: cell-based; conditions: Staphylococcus epidermidis; lecithin/chitosan particle composition; prep. mixture pH 5 or pH 7; maximum concentration tested 10 mg/ml; read-out: MIC (mg/ml) for S. epidermidis (chitosan prep. mixture was at pH 5 or at pH 7)
Description: as §1, §2, §3

[1] = assay type: in vivo; conditions: mice, oral capsules approximately 4 mg active component in chitosan-containing particles, three times per day for seven days
Text: Laboratory trials have shown that no resistance has developed in pathogens exposed to the compositions described herein, even with long term, repeated exposure (data not shown). In addition, no intrinsic resistance can or has been detected in target pathogens. […] A placebo group is also included, in which a group of 10 mice are given a placebo set of capsules, orally, three times per day and continued for seven days, each of the placebo set of capsules containing similarly prepared chitosan-containing particles without an active component, the preparation being generally as described herein. Initial mice have been infected with Salmonella typhimurium prior to oral delivery of one of the set of capsules. The capsules may be vegetable capsules. The capsules may have an enteric coating. For delivery, a formulation may be prepared in a manner understood in the relevant art. For delivery, a formulation may be in at least any one or more of the following forms: liquid, capsule, dried powder, mist, and the like. For delivery, the formulation will contain pharmaceutical grade materials, including one or more excipients and or fillers for internal and/or topical delivery in sufficient amounts known to those of skill in the relevant art. Flavors, colors, sugars, sugar-substitutes, and the like may also be included in any of the formulations, as is understood to those of skill in the relevant art.

COC(=O)CCCCCCCCCCCN.Cl [12-amino-1-dodecanoic acid methyl ester HCl]
MIC (E. coli; lecithin/chitosan particle composition, prep. mixture pH 9, read-out: MIC (mg/ml) for E. coli (chitosan prep. mixture was at pH 9)): 10 mg/mL | MIC (E. coli; lecithin/glycol chitosan particle composition, prep. mixture pH 7, read-out: MIC (mg/ml) for E. coli (chitosan prep. mixture was at pH 7 with glycol chitosan)): 0.8 mg/mL | MIC (mg/ml) for E. coli (chitosan prep. mixture was at pH 5 or at pH 7) (E. coli; lecithin/chitosan particle composition, prep. mixture pH 5 or pH 7): — (no inhibitory activity) | MIC (S. epidermidis): 10 mg/mL | Safety in animal trials [1]: no safety concerns

Source: patent US11351134B2, “Small molecule agents, compositions, and formulations, for internal use, displaying inhibitory activity against gram-positive and/or gram-negative organisms” (NATUREZA, INC., priority 2017, dated 2022)
